Results taken from US8952021B2, “Compounds for the prevention and treatment of cardiovascular disease” (Resverlogix Corp., priority 2009, dated 2015).

What was measured:
[1] = test system: ApoA-I mRNA; assay: Quantification of ApoA-I mRNA in HepG2 cells (real-time PCR); format: cell-based; parameters: key: Active: An active compound was defined as one that caused a ≧20% increase in ApoA-I mRNA at a concentration less than or equal to 100 μM; conditions: fold induction relative to DMSO control, concentration less than or equal to 100 μM
Experimental: In this example, ApoA-I mRNA in tissue culture cells was quantitated to measure the transcriptional up-regulation of ApoA-I when treated with a compound of the invention.
HepG2 cells (approximately 2×10^5 per well) were placed in a 24-well plate in approximately 400 μL MEM, supplemented with 0.5% (v/v) FBS, 24 h before addition of the compound of interest. At time of harvesting, the spent media was removed from the HepG2 cells and immediately placed on ice (for immediate use) or at −80° C. (for future use) in ApoA-I and albumin ELISAs. The cells remaining in the plate wells were rinsed in 200 μL PBS. PBS was carefully removed to avoid removing any loosely attached cells.
Once the PBS was removed, 85 μL cell lysis solution was added the cells in each well and incubated for 5-10 minutes at room temperature, to allow for complete cell lysis and detachment. mRNA was then prepared using the “mRNA Catcher PLUS plate” from Invitrogen, according to the protocol supplied. After the last wash, as much wash buffer as possible was aspirated without allowing the wells to dry. Elution Buffer (E3, 80 μL) was then added to each well. mRNA was then eluted by incubating the mRNA Catcher PLUS plate with Elution Buffer for 5 minutes at 68° C. and then immediately placing the plate on ice.
The eluted mRNA isolated was then used in a one-step real-time […] reaction, using components of the Ultra Sense Kit together with Applied Biosystems primer-probe mixes. Real-time PCR data was analyzed, using the Ct values, to determine the fold induction of each unknown sample, relative to the control (that is, relative to the control for each independent DMSO concentration).
An active compound was defined as one that caused a ≧20% increase in ApoA-I mRNA at a concentration less than or equal to 100 μM.

[2] = test system: subjects with low HDL-C; conditions: cited from earlier work

Row | melting point [°C] | SMILES | Effect on ApoA-I mRNA levels [1] | increase in the HDL-C level [2] [%] | reduction of the CHD risk [2] [%]
1 | 172.8 to 174.9 | CCC(C)c1ccc(-n2c(-c3ccc(OCCO)cc3)nc3ccccc3c2=O)cc1 (centres unmarked) [Example 6, 3-(4-sec-butylphenyl)-2-(4-(2-hydroxyethoxy)phenyl)quinazolin-4(3H)-one] | Active |  | 
2 | 185 to 186 | Cc1cc(-c2nc3c(Cl)cccc3c(=O)n2-c2ccc(Br)cc2)cc(C)c1OCCO [Example 20, 3-(4-bromophenyl)-8-chloro-2-(4-(2-hydroxyethoxy)-3,5-dimethylphenyl)quinazolin-4(3H)-one] | Active |  | 
3 | 235 to 237 | CCC(C)c1ccc(-n2c(-c3cc(C)c(OCCO)c(C)c3)nc3cc(S(C)(=O)=O)ccc3c2=O)cc1 (centres unmarked) [Example 12, 3-(4-sec-butylphenyl)-2-(4-(2-hydroxyethoxy)-3,5-dimethylphenyl)-7-(methylsulfonyl)quinazolin-4(3H)-one] | Active |  | 
4 | 195 to 196 | CCC(C)c1ccc(-n2c(-c3cc(C)c(OCCO)c(C)c3)nc3ccncc3c2=O)cc1 (centres unmarked) [Example 5, 3-(4-sec-butylphenyl)-2-(4-(2-hydroxyethoxy)-3,5-dimethylphenyl)pyrido[4,3-d]pyrimidin-4(3H)-one] | Active |  | 
5 | 160 to 162 | Cc1cc(-c2nc3ccccc3c(=O)n2-c2ccc(C(C)C)cc2)cc(C)c1OCCO [Example 18, 2-(4-(2-hydroxyethoxy)-3,5-dimethylphenyl)-3-(4-isopropylphenyl)quinazolin-4(3H)-one] | Active |  | 
6 | 258.8 to 260.2 | CCC(C)c1ccc(-n2c(-c3cc(C)c(OCCO)c(C)c3)nc3ccc(S(C)(=O)=O)cc3c2=O)cc1 (centres unmarked) [Example 15, 3-(4-sec-butylphenyl)-2-(4-(2-hydroxyethoxy)-3,5-dimethylphenyl)-6-(methylsulfonyl)quinazolin-4(3H)-one] | Active |  | 
7 | 152 to 154 | CCC(C)c1ccc(-n2c(-c3cc(C)c(OCCO)c(C)c3)nc3ccc(OC)cc3c2=O)cc1 (centres unmarked) [Example 13, 3-(4-sec-butylphenyl)-2-(4-(2-hydroxyethoxy)-3,5-dimethylphenyl)-6-methoxyquinazolin-4(3H)-one] | Active |  | 
8 | 160 to 162 | COc1ccc2nc(-c3cc(C)c(OCCO)c(C)c3)n(-c3ccc(Br)cc3)c(=O)c2c1 [Example 16, 3-(4-bromophenyl)-2-(4-(2-hydroxyethoxy)-3,5-dimethylphenyl)-6-methoxyquinazolin-4(3H)-one] | Active |  | 
9 |  | Cc1ccc(C)c(OCCCC(C)(C)C(=O)O)c1 [gemfibrozil] |  | 6 | 22
10 | 100 to 102 | COc1cccc2c(=O)n(-c3ccc(Br)cc3)c(-c3cc(C)c(OCCO)c(C)c3)nc12 [Example 17, 3-(4-bromophenyl)-2-(4-(2-hydroxyethoxy)-3,5-dimethylphenyl)-8-methoxyquinazolin-4(3H)-one] | Active |  | 
11 | 152 to 153 | CCC(C)c1ccc(-n2c(-c3cc(C)c(OCCO)c(C)c3)nc3ccccc3c2=O)cc1 (centres unmarked) [Example 1 and 2, 3-(4-sec-butylphenyl)-2-(4-(2-hydroxyethoxy)-3,5-dimethylphenyl)quinazolin-4(3H)-one] |  |  | 
12 | 158 to 159 | CCC(C)c1ccc(-n2c(-c3cc(C)c(OCCO)c(C)c3)nc3c(OC)cccc3c2=O)cc1 (centres unmarked) [Example 14, 3-(4-sec-butylphenyl)-2-(4-(2-hydroxyethoxy)-3,5-dimethylphenyl)-8-methoxyquinazolin-4(3H)-one] | Active |  | 
13 |  | O=c1c2ccccc2nc(-c2ccc(N3CCCCC3)nc2)n1-c1ccc(Cl)cc1 [Example 48, 3-(4-chlorophenyl)-2-(6-(piperidin-1-yl)pyridin-3-yl)quinazolin-4(3H)-one] | Active |  | 
14 |  | CCC(C)c1ccc(-n2c(-c3ccc(-c4ccccc4)nc3)nc3ccccc3c2=O)cc1 (centres unmarked) [Example 55, 3-(4-sec-butylphenyl)-2-(6-phenylpyridin-3-yl)quinazolin-4(3H)-one] | Active |  | 
15 |  | CCC(C)c1ccc(-n2c(-c3ccc4[nH]c(CO)cc4c3)nc3ccccc3c2=O)cc1 (centres unmarked) [Example 82, 3-(4-sec-butylphenyl)-2-(2-(hydroxymethyl)-1H-indol-5-yl)quinazolin-4(3H)-one] | Active |  | 
16 |  | CN(C)c1ccc(-n2c(-c3ccc4[nH]ccc4c3)nc3ccccc3c2=O)cc1 [Example 80, 3-(4-(dimethylamino)phenyl)-2-(1H-indol-5-yl)quinazolin-4(3H)-one] | Active |  | 
17 |  | CCC(C)c1ccc(-n2c(-c3cncc(-c4ccccc4)c3)nc3ccccc3c2=O)cc1 (centres unmarked) [Example 56, 3-(4-sec-butylphenyl)-2-(5-phenylpyridin-3-yl)quinazolin-4(3H)-one] | Active |  | 
18 |  | CCC(C)c1ccc(-n2c(-c3ccc(Br)nc3)nc3ccccc3c2=O)cc1 (centres unmarked) [Example 42, 2-(6-bromopyridin-3-yl)-3-(4-sec-butylphenyl)quinazolin-4(3H)-one] | Active |  | 
19 |  | CCC(C)c1ccc(-n2c(-c3cc(C)c(OCCO)c(C)c3)nc3cc(F)ccc3c2=O)cc1 (centres unmarked) [Example 4, 3-(4-sec-butylphenyl)-7-fluoro-2-(4-(2-hydroxyethoxy)-3,5-dimethylphenyl)quinazolin-4(3H)-one] | Active |  | 
20 |  | O=c1c2ccccc2nc(-c2ccc3[nH]ccc3c2)n1-c1ccc(Cl)cc1 [Example 73, 3-(4-chlorophenyl)-2-(1H-indol-5-yl)quinazolin-4(3H)-one] | Active |  | 

Row | SMILES | melting point [°C] | Effect on ApoA-I mRNA levels [1] | increase in the HDL-C level [2] [%] | reduction of the CHD risk [2] [%]
21 | Cc1cc(-c2nc3ccccc3c(=O)n2-c2ccc(Cl)cc2)cc(C)c1OCCO [Example 10, 3-(4-chlorophenyl)-2-(4-(2-hydroxyethoxy)-3,5-dimethylphenyl)quinazolin-4(3H)-one] | 101 to 103 | Active |  | 
22 | Cc1cc(-c2nc3ccccc3c(=O)n2-c2ccc(I)cc2)cc(C)c1OCCO [Example 8, 2-(4-(2-hydroxyethoxy)-3,5-dimethylphenyl)-3-(4-iodophenyl)quinazolin-4(3H)-one] | 101 to 103 | Active |  | 
23 | Cc1cc(-c2nc3ccccc3c(=O)n2-c2ccc(Br)cc2)cc(C)c1OCCO [Example 3, 3-(4-bromophenyl)-2-(4-(2-hydroxyethoxy)-3,5-dimethylphenyl)quinazolin-4(3H)-one] | 164 to 165 | Active |  | 
24 | Cc1cc(-c2nc3ccccc3c(=O)n2-c2ccc(F)cc2)cc(C)c1OCCO [Example 7, 3-(4-fluorophenyl)-2-(4-(2-hydroxyethoxy)-3,5-dimethylphenyl)quinazolin-4(3H)-one] | 95 to 97 | Active |  | 
25 | Cc1cc(-c2nc3ccccc3c(=O)n2-c2ccc(Br)cc2)ccc1OCCO [Example 19, 3-(4-bromophenyl)-2-(4-(2-hydroxyethoxy)-3-methylphenyl)quinazolin-4(3H)-one] | 92 to 93 | Active |  | 
